For this assay, the system named is THP-1 cells crossing HUVEC monolayer. Kind of assay: Trans-endothelial migration assay, xCELLigence RTCA. It counts as cell-based, human. The settings on record: 10 nM peptide, 10% FBS, monitored 10 hours, Cell Index, quadruplicate. From the text:
Diapedesis of leukocytes plays a key role in the pathogenesis of inflammatory diseases and migration of monocytes from the blood into the sub-endothelial space is one of the earliest events. We investigated the effects of [SRSRY] on the number and morphology of THP-1 seeded to an endothelial monolayer. […] (Fig 5A). To examine the changes in morphology in more detail and quantify monocytes interacting with endothelial monolayer, we performed a subset of experiments using GFP-tagged THP-1, labeling co-cultures for F-actin and recording images by a confocal microscope. […] To further ascertain if [SRSRY] reduces trans-endothelial migration of monocytes, the ability of THP-1 cells to cross an endothelial monolayer was analyzed using the xCELLigence RTCA technology as previously described. […] At this time, reduction of impedance values, due to invading cells that interrupt monolayers was monitored in real-time for 10 hours. […]
Fig 5 [SRSRY] prevents trans-endothelial migration of THP-1 cells. […] Representative images of co-cultures analyzed by phase contrast microscopy at 100x with Scale bar: 50 μm (A) or stained with rhodamine- phalloidin and recorded by a confocal microscope (z-series with 0.25 μm intervals) at 630x with Scale bar: 10 μm (B). […] Fluorescent THP-1 cells which were adherent on the endothelial monolayer were counted on 10 fields/slide at 200x magnification. […]

Peptide text beside a SMILES is read from it.

Turning to `N=C(N)NCCC[C@@H]1NC(=O)[C@H](CO)NC(=O)[C@H](Cc2ccc(O)cc2)NC(=O)[C@H](CCCNC(=N)N)NC(=O)[C@H](CO)NC1=O` [[SRSRY], [Ser-Arg-Ser-Arg-Tyr]] (cyclo(RSRYS)), the “reduction of THP-1 trans-endothelial migration” value is reported as 35%.

For the origin of these results see paper PMC4418665, “Cyclization of the Urokinase Receptor-Derived Ser-Arg-Ser-Arg-Tyr Peptide Generates a Potent Inhibitor of Trans-Endothelial Migration of Monocytes” (PLoS ONE, 2015).
